In PubChem BioAssay (NCI):
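Five compound concentrations were applied to cells in 96-well plates for 48 hours; endpoints were derived by simple linear interpolation of the resulting dose-response curve. Definition used: TGI = concentration required for complete inhibition of growth.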

Columns and labels:
Assay in all cases: NCI anticancer screen, dose series, 48 h
T-47D breast = test system: T-47D breast
NCI/ADR-RES ovarian = test system: NCI/ADR-RES ovarian
MDA-MB-435 = test system: MDA-MB-435
BT-549 breast = test system: BT-549 breast

| SMILES | TGI (T-47D breast) | TGI (NCI/ADR-RES ovarian) | TGI (MDA-MB-435) | TGI (BT-549 breast) |
| --- | --- | --- | --- | --- |
| O=C1/C(=C\c2ccc(O)cc2)CCC/C1=C/c1ccc(Cl)c(Cl)c1 | 33.3 µM | 4.27 µM | 9.51 µM | 7.49 µM |
| COc1cc(O)c2c(=O)cc(-c3ccc(O)cc3O)oc2c1CC=C(C)C | – | > 100 µM | > 100 µM | – |
| CNC1=C(C)C(=O)C(=O)C([C@H](C)CCC=C(C)C)=C1O | 86.3 µM | > 38.4 µM | > 100 µM | > 100 µM |
| O=C1/C(=C/c2ccccc2O)N=C(c2ccccc2)N1C1Nc2cc3c(cc2S1)NC(N1C(=O)/C(=C/c2ccccc2O)N=C1c1ccccc1)S3 (stereo unspecified) | > 100 µM | > 100 µM | > 100 µM | – |
| CCc1c2c([nH]c(=S)c1C#N)CCC2 | – | > 100 µM | > 100 µM | > 100 µM |
| O=[N+]([O-])/C(C(Cl)=C(Cl)Cl)=C(\N1CCOCC1)n1nnc2ccccc21 | 56.8 µM | 65.1 µM | 41 µM | 33.1 µM |
| Cc1csc2c(=O)n(C3OC(CO)C(O)C3O)c(=O)[nH]c12 (stereo unspecified) | – | > 100 µM | > 100 µM | > 100 µM |
| O=C1CCC2C(O)c3cc4c(cc3C(c3ccc5c(c3)OCO5)N12)OCO4 (stereo unspecified) | > 100 µM | > 100 µM | > 100 µM | > 100 µM |
| [N-]=[N+]=Nc1ccccc1C(=O)N1C(=O)c2ccccc2C(=O)N(C(=O)c2ccccc2N=[N+]=[N-])c2ccccc21 | > 100 µM | > 100 µM | > 100 µM | > 100 µM |
| O=C1c2cc(Cl)ccc2-n2cnnc2C2CSCN12 (stereo unspecified) | > 100 µM | > 100 µM | > 100 µM | > 100 µM |
| C=CCNC(=O)NC(=O)CSC1=NNC2(C(=O)N1)c1ccccc1-c1ccccc12 | > 10 µM | > 10 µM | > 10 µM | > 10 µM |
| Cc1csc2[n+]1C(=O)/C(=C\c1ccc([N+](=O)[O-])cc1)S2 | 65.5 µM | 63.6 µM | 59.9 µM | – |
| CCOC(CN(C)C(=O)Nc1cccc2ccccc12)OCC | > 10 µM | > 10 µM | > 10 µM | – |
| Cc1ccc2c(c1)[nH]c(=S)n2/C=C1\C(=O)Oc2ccccc2C1=O | > 100 µM | > 100 µM | > 100 µM | > 100 µM |
| COC(=O)/C=C(/C)n1nc2ccccc2n1 | > 100 µM | > 100 µM | > 100 µM | > 100 µM |
| O=C1C(Cl)C2(CC(/C=C/c3ccccc3Cl)=NN2c2cccc(S(=O)(=O)O)c2)N1c1nc2ccccc2s1 (stereo unspecified) | > 100 µM | > 100 µM | 24.3 µM | > 100 µM |

| SMILES | TGI (T-47D breast) | TGI (NCI/ADR-RES ovarian) | TGI (MDA-MB-435) | TGI (BT-549 breast) |
| --- | --- | --- | --- | --- |
| CCOP(=O)(OCC)/C(C#N)=C/c1ncc[nH]1 | – | > 100 µM | > 100 µM | > 100 µM |
| C=CCN1C(=O)/C(=C/c2ccc(OC)cc2)N=C1SC/C=C/C | 94.2 µM | > 100 µM | > 100 µM | > 100 µM |
| C=CCNC1=C2C[C@@H](C)C[C@@H](OC)[C@H](OC(=O)CCN)[C@H](C)/C=C(\C)[C@@H](OC(N)=O)[C@H](OC)/C=C\C=C(/C)C(=O)NC(=CC1=O)C2=O | 15.5 µM | > 100 µM | 13.4 µM | 21.2 µM |
| CS(=O)(=O)c1nc(-c2cc3c(c(S(C)(=O)=O)n2)CCC3)cc2c1CCCCC2 | – | > 100 µM | > 100 µM | 58.2 µM |
| Clc1ccc(NCc2nnc(CCCCCCCCc3nnc(CNc4ccc(Cl)cc4)o3)o2)cc1 | > 100 µM | > 100 µM | > 100 µM | > 100 µM |
| O=C(ON=C1c2ccccc2C(Br)C(Br)c2ccccc21)c1cc([N+](=O)[O-])cc([N+](=O)[O-])c1 (stereo unspecified) | 76.7 µM | 40.5 µM | 35.3 µM | – |
| CN(C)Nc1cc(=O)[nH]c(=O)[nH]1 | – | > 100 µM | > 100 µM | > 100 µM |
| CCOC(=O)c1cccn1S(=O)(=O)c1cc(Cl)ccc1NC(=O)CC | > 100 µM | – | > 100 µM | > 100 µM |
| COC(=O)[C@@H]1CN(C(C)=O)C(=O)N1 | > 100 µM | > 100 µM | > 100 µM | – |
| O=C1/C(=C/c2cccc(F)c2)CCCc2ccccc21 | – | 33.1 µM | 29.7 µM | 34.1 µM |
| O=C1/C(=C/c2cccc(Br)c2)CCc2ccccc21 | – | 33.2 µM | 25.4 µM | 22.2 µM |
| O=C1NC2ON=C(c3ccccc3)C2C2ON=C(c3ccccc3)N12 (stereo unspecified) | – | > 100 µM | – | > 100 µM |
| Cn1c(=O)c(Br)c(C=O)n(CCO[N+](=O)[O-])c1=O | 14.6 µM | 4.31 µM | 21.6 µM | – |
| CCc1n[nH]c(=O)n1/N=C/c1c(O)ccc2ccccc12 | – | > 100 µM | > 100 µM | > 100 µM |
| COC1(OC)c2no[n+]([O-])c2CCC1O (stereo unspecified) | > 100 µM | > 100 µM | > 100 µM | – |
| CCSc1[nH]c(NC(=S)NC(=O)c2ccccc2Cl)c(C(N)=O)c1C(N)=O | > 10 µM | – | > 10 µM | – |
